In patent publication US20240374573A1, “IMIDAZOLE CONTAINING COMPOUNDS, DERIVATIVES THEREFORE, AND USES THEREOF” (AglaeaPharma Inc., priority 2023, published 2024):
Read-outs that look alike come from different tables or passages of the source.

Target: T1, α2AAR (Homo sapiens, UniProt P08913)
T1 construct: host or cells: HEK293 (membranes)
T1 sequence (P08913 1-465): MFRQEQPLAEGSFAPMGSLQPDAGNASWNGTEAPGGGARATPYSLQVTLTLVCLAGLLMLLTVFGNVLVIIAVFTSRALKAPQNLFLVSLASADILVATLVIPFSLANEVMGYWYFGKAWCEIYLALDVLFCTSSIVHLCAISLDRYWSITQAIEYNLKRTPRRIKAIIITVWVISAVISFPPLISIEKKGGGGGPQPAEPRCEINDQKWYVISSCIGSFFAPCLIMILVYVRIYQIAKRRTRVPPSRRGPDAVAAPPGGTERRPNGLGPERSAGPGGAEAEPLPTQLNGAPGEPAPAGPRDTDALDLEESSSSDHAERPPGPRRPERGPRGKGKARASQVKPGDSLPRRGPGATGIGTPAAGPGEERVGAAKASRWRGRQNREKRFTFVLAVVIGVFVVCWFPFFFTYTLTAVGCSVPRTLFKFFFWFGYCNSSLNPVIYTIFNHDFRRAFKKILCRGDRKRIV
Assay: α2AAR binding assay ([3H]-RX 821002 radioligand)
Description: The α2AR Binding Assay was conducted using a stable HEK293 cell line, specifically constructed by WuXi AppTec for targeting α2AAR. […] Both the assay and wash buffers consist of 50 mM Tris-HCl at a pH of 7.4 (Tris base, Sigma, T1503-1 KG).
The procedure initiated with the preparation of test compounds and a reference compound, yohimbine (Sigma, Y3125), through an 8-point 4-fold serial dilution, transferring 1 μL of each to the assay plate. […] After scaling, the plates were agitated at room temperature for one hour. Subsequently, the Unifilter-96 GF/C filter plates were pre-soaked with 0.3% PEI (Sigma, P3143) for at least half an hour. The reaction mixtures were then filtered and washed four times with cold wash buffer using a Perkin Elmer Cell harvester. Post-filtration, the plates were dried at 50° C. for one hour. […] The top of the plates was then sealed with TopSeal-A sealing film. The trapped 3H was quantified using a Perkin Elmer MicroBeta2 Reader. […] Finally, the data were analyzed with Prism 5.0 software, employing the “log (inhibitor) vs. response-Variable slope” model for data fitting. This comprehensive process ensured precise assessment of the binding affinity of compounds to the α2AAR.

[1] = [3H]-RX 821002 0.5 nM, HEK293 membranes, read-out: α2A affinity (Ki)

Row | Structure (SMILES) | Ki [1] [nM] | Ki (α2A affinity (Ki, nM)) [nM]
1 | Cc1cccc(C(c2cccc(NC(=O)CCC#N)c2)c2c[nH]cn2)c1C (single isomer, unassigned) [43-A] | > 1000 | –
2 | Cc1cccc(C(c2c[nH]cn2)c2cccc(C(N)=O)c2F)c1C (single isomer, unassigned) [45-A] | > 1000 | –
3 | Cc1cccc(C(c2cccc(OCCNS(C)(=O)=O)c2)c2c[nH]cn2)c1C (single isomer, unassigned) [46-A] | > 1000 | –
4 | Cc1cccc(C(c2cccc(C(=O)NCC3CCOCC3)c2)c2c[nH]cn2)c1C (single isomer, unassigned) [98-A] | 250 to 1000 | –
5 | Cc1cccc(C(c2cnc[nH]2)C2CCc3ccc(O)cc32)c1C (single isomer, unassigned) [100-A] | – | < 10
6 | Cc1cccc(C(c2cnc[nH]2)C2CCc3ccc(O)cc32)c1C (single isomer, unassigned) [100-B] | – | 50 to 250
7 | Cc1cccc(C(Cc2cccc(NS(=O)(=O)CC3CCOCC3)c2)c2c[nH]cn2)c1C (single isomer, unassigned) [112-A] | 250 to 1000 | –
8 | Cc1cccc(C(c2c[nH]cn2)c2cccc(C(=O)NCC3CCOCC3)c2F)c1C (single isomer, unassigned) [124-A] | 250 to 1000 | –
9 | Cc1cccc(C(Cc2ccc(C(N)=O)c(F)c2)c2c[nH]cn2)c1C (single isomer, unassigned) [156-A] | > 1000 | –
10 | Cc1cccc(C(Cc2ccc(C(=O)O)cc2)c2c[nH]cn2)c1C (single isomer, unassigned) [175-A] | > 1000 | –
11 | Cc1cccc(C(OCCOCCNS(C)(=O)=O)c2c[nH]cn2)c1C (stereo not shown) [compound 40] | > 1000 | –
12 | Cc1cccc(C(c2c[nH]cn2)c2cccc(NC(=O)CC#N)c2F)c1C (stereo not shown) [compound 41] | 50 to 250 | –
13 | Cc1cccc(C(c2cccc(NC(=O)CCC(N)=O)c2)c2c[nH]cn2)c1C (stereo not shown) [compound 42] | 50 to 250 | –
14 | Cc1cccc(C(c2cccc(OCCC#N)c2)c2c[nH]cn2)c1C (stereo not shown) [compound 48] | > 1000 | –
15 | CONC(=O)c1cccc(C(c2ccccc2)c2c[nH]cn2)c1 (stereo not shown) [compound 49] | > 1000 | –
16 | CONC(=O)c1cc(C(c2c[nH]cn2)c2cccc(C)c2C)ccc1F (stereo not shown) [compound 53] | 250 to 1000 | –
17 | Cc1cccc(C(c2ccnc(NS(C)(=O)=O)c2)c2c[nH]cn2)c1C (stereo not shown) [compound 57] | 250 to 1000 | –
18 | Cc1cccc(C(c2c[nH]cn2)c2ccnc(C(N)=O)c2F)c1C (stereo not shown) [compound 58] | 50 to 250 | –
19 | Cc1cccc(C(c2c[nH]cn2)C2CCCC(C(=O)O)C2)c1C (stereo not shown) [compound 60] | 250 to 1000 | –
20 | COC(=O)Nc1cccc(C(c2c[nH]cn2)c2cccc(C)c2C)c1 (stereo not shown) [compound 62] | 50 to 250 | –
21 | CC(=O)NCc1cccc(C(c2c[nH]cn2)c2cccc(C)c2C)c1 (stereo not shown) [compound 65] | 50 to 250 | –
22 | Cc1cccc(C(COCCNS(C)(=O)=O)c2c[nH]cn2)c1C (stereo not shown) [compound 66] | – | 250 to 1000
23 | Cc1cccc(C(c2cccc(C#N)c2)c2c[nH]cn2)c1C (stereo not shown) [compound 68] | 50 to 250 | –
24 | Cc1cccc(C(c2cccc(CNS(C)(=O)=O)c2)c2c[nH]cn2)c1C (stereo not shown) [compound 69] | 50 to 250 | –
25 | Cc1cccc(C(c2cccc(N(C)S(C)(=O)=O)c2)c2c[nH]cn2)c1C (stereo not shown) [compound 71] | 10 to 50 | –

Row | Structure (SMILES) | Ki [1] [nM] | Ki (α2A affinity (Ki, nM)) [nM]
26 | Cc1c(F)cccc1C(c1cccc(NS(C)(=O)=O)c1)c1c[nH]cn1 (stereo not shown) [compound 75] | 50 to 250 | –
27 | Cc1cccc(C(c2cccc(NS(=O)(=O)C(F)(F)F)c2)c2c[nH]cn2)c1C (stereo not shown) [compound 77] | 250 to 1000 | –
28 | CS(=O)(=O)Nc1cccc(C(c2c[nH]cn2)c2c(F)cccc2Cl)c1 (stereo not shown) [compound 78] | 250 to 1000 | –
29 | Cc1cccc(C(c2cccc(NC(=O)CCN3CCN(C)CC3)c2)c2c[nH]cn2)c1C (stereo not shown) [compound 82] | > 1000 | –
30 | Cc1cccc(C(c2cccc(NCCNS(C)(=O)=O)c2)c2c[nH]cn2)c1C (stereo not shown) [compound 83] | 50 to 250 | –
31 | Cc1cccc(C(c2cccc(NC(=O)c3cn[nH]c3)c2)c2c[nH]cn2)c1C (stereo not shown) [compound 87] | 50 to 250 | –
32 | Cc1cccc(C(c2cccc(C(=O)NOCCN3CCOCC3)c2)c2c[nH]cn2)c1C (stereo not shown) [compound 91] | 50 to 250 | –
33 | Cc1cccc(C(c2c[nH]cn2)C2CCCC(C(N)=O)C2)c1C (stereo not shown) [compound 92] | > 1000 | –
34 | Cc1cccc(C(CCOCCOCCNS(C)(=O)=O)c2c[nH]cn2)c1C (stereo not shown) [compound 93] | 250 to 1000 | –
35 | Cc1cccc(C(c2c[nH]cn2)N2CCc3ccc(NS(C)(=O)=O)cc32)c1C (stereo not shown) [compound 106] | 50 to 250 | –
36 | Cc1cccc(C(c2cccc(NC(=O)CN3CCNCC3)c2)c2c[nH]cn2)c1C (stereo not shown) [compound 107] | 50 to 250 | –
37 | Cc1cccc(C(c2cccc(NC(=O)CN(C)C)c2)c2c[nH]cn2)c1C (stereo not shown) [compound 110] | 50 to 250 | –
38 | Cc1c(F)cccc1C(c1cccc(NC(=O)CC2CCOCC2)c1)c1c[nH]cn1 (stereo not shown) [compound 113] | 50 to 250 | –
39 | Cc1cccc(C(c2cccc(CN3CCCCC3)c2)c2c[nH]cn2)c1C (stereo not shown) [compound 114] | > 1000 | –
40 | Cc1c(CO)cccc1C(c1cccc(NS(C)(=O)=O)c1)c1c[nH]cn1 (stereo not shown) [compound 115] | 250 to 1000 | –
41 | Cc1cccc(C(c2cccc(COCCNS(C)(=O)=O)c2)c2c[nH]cn2)c1C (stereo not shown) [compound 116] | 10 to 50 | –
42 | Cc1cccc(C(c2cccc(CCN3CCC(O)CC3)c2)c2c[nH]cn2)c1C (stereo not shown) [compound 125] | 10 to 50 | –
43 | CNS(=O)(=O)Nc1cccc(C(c2c[nH]cn2)c2cccc(C)c2C)c1 (stereo not shown) [compound 127] | 10 to 50 | –
44 | CNC(=O)Nc1cccc(C(c2c[nH]cn2)c2cccc(C)c2C)c1 (stereo not shown) [compound 128] | 50 to 250 | –
45 | C=CC(=O)Nc1cccc(C(c2c[nH]cn2)c2cccc(C)c2C)c1 (stereo not shown) [compound 129] | 50 to 250 | –
46 | Cc1csc(CCS(=O)(=O)Nc2cccc(C(c3c[nH]cn3)c3cccc(C)c3C)c2)n1 (stereo not shown) [compound 131] | 10 to 50 | –
47 | COc1ccccc1C(c1cccc(NC(=O)CC2CCOCC2)c1)c1c[nH]cn1 (stereo not shown) [compound 132] | 50 to 250 | –
48 | COc1ccccc1C(c1cccc(NS(C)(=O)=O)c1)c1c[nH]cn1 (stereo not shown) [compound 135] | 50 to 250 | –
49 | CCc1ccccc1C(c1cccc(NS(C)(=O)=O)c1)c1c[nH]cn1 (stereo not shown) [compound 140] | 50 to 250 | –
50 | Cc1cccc(C(Cc2cccc(NS(=O)(=O)CC3CCOCC3)c2)c2c[nH]cn2)c1C (stereo not shown) [compound 142] | < 10 | –

Row | Structure (SMILES) | Ki [1] [nM] | Ki (α2A affinity (Ki, nM)) [nM]
51 | Cc1cccc(C(c2cccc(NC(=O)CC[N+](C)(C)C)c2)c2c[nH]cn2)c1C (stereo not shown) [compound 144] | 50 to 250 | –
52 | CONC(=O)c1cc(C(c2c[nH]cn2)c2cccc(C)c2C)cs1 (stereo not shown) [compound 182] | 50 to 250 | –
53 | Cc1cccc(C(CCc2ccccc2NS(C)(=O)=O)c2c[nH]cn2)c1C (stereo not shown) [compound 183] | 250 to 1000 | –
54 | Cc1cccc(C(CCCNS(C)(=O)=O)c2c[nH]cn2)c1C (stereo not shown) [compound 184] | – | 250 to 1000
55 | Cc1cccc(C(CC23CC4CC(C2)CC(C(N)=O)(C4)C3)c2c[nH]cn2)c1C (stereo not shown) [compound 188] | > 1000 | –
56 | Cc1cccc(C(c2cccc(NS(=O)(=O)CCc3cncnc3)c2)c2c[nH]cn2)c1C (stereo not shown) [compound 189] | 10 to 50 | –
57 | Cc1cccc(C(CCCCNS(C)(=O)=O)c2c[nH]cn2)c1C (stereo not shown) [compound 191] | 50 to 250 | –
58 | Cc1cccc(C(Cc2ccc(P(=O)(O)O)cc2)c2c[nH]cn2)c1C (stereo not shown) [compound 199] | > 1000 | –
59 | Cc1cccc(C(Cc2ccc(C(N)=O)nc2)c2c[nH]cn2)c1C (stereo not shown) [compound 238] | 50 to 250 | –
60 | Cc1cccc(C(CCCCCC(N)=O)c2c[nH]cn2)c1C (stereo not shown) [compound 240] | 250 to 1000 | –
61 | Cc1cccc(C(CCCCCNS(C)(=O)=O)c2c[nH]cn2)c1C (stereo not shown) [compound 249] | – | 50 to 250
62 | Cc1cccc(C(CCCCNS(=O)(=O)C2CCOCC2)c2c[nH]cn2)c1C (stereo not shown) [compound 250] | 50 to 250 | –
63 | Cc1csc(C)c1C(c1cccc(NS(C)(=O)=O)c1)c1c[nH]cn1 (stereo not shown) [compound 402] | 250 to 1000 | –
64 | CS(=O)(=O)Nc1cccc(CC(C2=NCCN2)c2c(Cl)cccc2Cl)c1 (stereo not shown) [compound 501] | 250 to 1000 | –
65 | NC(=O)c1cccc(CC(Oc2c(Cl)cccc2Cl)C2=NCCN2)c1 (stereo not shown) [compound 502] | 50 to 250 | –
66 | Cc1cccc(C(NC2=NCCS2)c2cccc(NS(C)(=O)=O)c2)c1C (stereo not shown) [compound 504] | 50 to 250 | –
67 | Cc1cccc(C(NC2=NCCS2)c2cccc(NC(=O)CC3CCOCC3)c2)c1C (stereo not shown) [compound 507] | 10 to 50 | –
68 | CONC(=O)c1cccc(C(NC2=NCCS2)c2ccccc2OC)c1 (stereo not shown) [compound 508] | 250 to 1000 | –
69 | Cc1cccc(C(Cc2cccc(NS(C)(=O)=O)c2)C2=NCCN2)c1C (stereo not shown) [compound 510] | 50 to 250 | –
70 | CONC(=O)c1cccc(CC(NC2=NCCS2)c2cccc(C)c2C)c1 (stereo not shown) [compound 511] | < 10 | –
71 | CONC(=O)c1cccc(CC(NC2=NCCS2)c2cccc(Cl)c2Cl)c1 (stereo not shown) [compound 512] | < 10 | –
72 | CONC(=O)c1cc(CC(NC2=NCCS2)c2ccccc2OC)ccn1 (stereo not shown) [compound 513] | < 10 | –
73 | COc1ccccc1C(NC1=NCCS1)c1cccc(NC(=O)CC2CCOCC2)c1 (stereo not shown) [compound 514] | 50 to 250 | –
